Assay results as given in US6956044B1, “Compositions and methods for treatment of epilepsy” (priority 2000, dated 2005).

Assays:
[1] = Intraperitoneal LD50 (Table 2); format: in vivo
[2] = system: pentylenetetrazol-induced seizures; assay: Pentylenetetrazol (Metrazol) seizure test; format: in vivo; details: pentylenetetrazol 120 mg/kg i.p. 30 minutes after compound
Experimental: Effect Against Pentylenetetrazol (Metrazol) Seizures. […] The pentylenetetrazol (metrazol), 120 mg/kg, was injected intraperitoneally 30 minutes after the oral administration of the respective graded doses of the compounds. Protection in this test was defined as a failure to detect even a single episode of clonic spasms of at least 5 seconds duration during a 30 minute period following the injection of the metrazol (F. M. Berger, 78:277, 1951). […] Exper. Med. Biol., against pentylenetetrazol seizures ([…] al., Epilepsia, 19: 193-408, 1978).

[3] = Oral LD50 (Table 3); format: in vivo
[4] = system: maximal electroshock seizures; assay: Maximal electroshock seizure test; format: in vivo; details: albino mice, intraperitoneal, 140 minutes after injection of test compound
Text: Effect Against Maximal Electroshock Seizures. […] Given intraperitoneally to albino mice these compounds have afforded complete protection from maximal electroshock seizures for several hours. To test the maximal seizure anticonvulsant properties in albino mice weighing approximately 25 grams, first an electrical current was delivered via cranial electrodes at a voltage strength which induced a typical maximal electroconvulsant seizure in all the mice. Maximal tonic electrochock seizures were induced with 2 to 7 milliamperes being discharged at 18 volts, and at a frequency of 1000 per second. Abolition of the hindlimb tonic extension component of the seizure was defined as protection in this maximal electroshock test (L. S. Goodman et al., Jour. Pharm. Exper. Therap., 108: 168, 1953). The apparatus used was structured so that the current administered was independent of external resistance. There were 10 animals per group, and they were exposed to electroshock seizures at 20, 80 and 140 minutes after injection of the test compounds. The mice received graded doses of the compounds, and the dose protecting 50% of the animals was calculated biometrically.

[5] = Plasma concentration after oral dosing in man; format: in vivo
Experimental: In laboratory animals or in man, pirfenidone is well absorbed after oral administration. Plasma pirfenidone concentrations in man peak 1 to 4 hours after dosing. Metabolically, first order kinetics prevail over a daily dose range of 1200 to 3600 milligrams of pirfenidone in divided dosage (t.i.d.). Pirfenidone is cleared primarily by hepatic metabolism (S. Giri et al., Amer. Thoracic Soc. International Conf., Apr. 24-29, 1998) mainly hydroxylation and conjugation, and excreted primarily in the urine. […] The highly rapid and efficient oral bioavailability of pirfenidone in humans contrasts with that of oral phenytoin. In man, absorption of phenytoin after oral ingestion is slow, often variable and can be incomplete so that peak or effective concentrations in plasma and tissues may be delayed for 3 or more hours (E. Perucca and […], “Handbook of Exper. Pharmacol.,” Vol. 74: 831-855, 1985, Springer-Verlag, Berlin.)

[6] = system: Bullfrog sciatic nerve trunk (de-sheathed); assay: Frog sciatic nerve trunk high frequency stimulation; details: 10 mM
Text: Pirfenidone: Effect on Frog Sciatic Nerve Trunk High Frequency Stimulation. Bullfrog sciatic nerve trunk (de-sheathed) was stimulated with trains of pulses at 200 Hertz in order to see if pirfenidone affected the nerve's ability to conduct high frequency impulses. […] Drugs that cause “use-dependent” block (high frequency failure) are generally regarded as potential anti-epileptic drugs.

[7] = system: nerve after-discharge; assay: After-discharge on electrical nerve stimulation (neuropharmacological tests in cat and frog); details: cat and frog demonstrations
Text: However, the molecular mechanism of the anticonvulsant action within neuronal cells remains unknown.

[8] = system: cat soleus muscle nerve preparation; assay: Cat soleus muscle nerve preparation, neuromuscular function; format: in vivo; details: for Single impulse transmission: cat soleus muscle nerve preparation
Text: Pirfenidone: Effect on Neuromuscular Function of the Cat Soleus Muscle Nerve Preparation. […] The action resembles that of phenytoin (J. A. Wada, Arch. Neurol., 34: 389–395, 1977).

[9] = system: pentylenetetrazol-induced seizures; details: literature (Krall et al.); cited from earlier work
[10] = man; cited from earlier work

In the case of `O=c1ccccn1-c1ccccc1` [1-phenyl-2-(1H)-pyridone, reference compound], the “I.P. LD50” value [1] is reported as greater than 500 mg/kg, the “ORAL ED50 (dose protecting 50% of mice against pentylenetetrazol-induced seizures)” value [2] is reported as “No Activity” and the “ORAL LD50” value [3] is reported as 540 ± 124 mg/kg. The “I.P. ED50 (dose protecting 50% of mice against maximal electroshock seizures)” value [4] was “No Activity”.
With `Cc1cccn(-c2ccccc2)c1=O` [3-methyl-1-phenyl-2-(1H)-pyridone] the “I.P. LD50” value [1] was greater than 500 mg/kg, the “ORAL ED50 (dose protecting 50% of mice against pentylenetetrazol-induced seizures)” value [2] was “No Activity” and the “ORAL LD50” value [3] was 650 ± 110 mg/kg. For the same compound, the “I.P. ED50 (dose protecting 50% of mice against maximal electroshock seizures)” value [4] was “No Activity”.
In the case of `CCc1ccc(=O)n(-c2ccccc2)c1` [5-ethyl-1-phenyl-2-(1H)-pyridone], the “I.P. LD50” value [1] is reported as 500 ± 61 mg/kg, the “ORAL ED50 (dose protecting 50% of mice against pentylenetetrazol-induced seizures)” value [2] is reported as 285 ± 29 mg/kg and the “ORAL LD50” value [3] is reported as 425 ± 48 mg/kg. The “I.P. ED50 (dose protecting 50% of mice against maximal electroshock seizures)” value [4] was 60 ± 10 mg/kg.
In the case of `Cc1ccc(=O)n(-c2ccccc2)c1` [5-methyl-1-phenyl-2-(1H)-pyridone], the “I.P. LD50” value [1] is reported as 600 ± 43 mg/kg, the “Time of peak plasma concentration after dosing” value [5] is reported as 1 to 4 h and the “Conduction of high frequency impulses (200 Hertz pulse trains)” value [6] is reported as “caused definite high frequency failure”. The “Local anesthesia in the nerve” value [6] was “did not cause local anesthesia”, the “ORAL ED50 (dose protecting 50% of mice against pentylenetetrazol-induced seizures)” value [2] was 325 ± 41 mg/kg and the “Block of the classical after-discharge when a nerve is electronically stimulated” value [7] was “completely block”. The “ORAL LD50” value [3] was 610 ± 34 mg/kg, the “Post-tetanic potentiation (PTP)” value ([8]; 50 mg/kg intravenously) was “suppresses the post-tetanic potentiation” and the Single impulse transmission [8] was “Neither pirfenidone nor phenytoin impair”. The “I.P. ED50 (dose protecting 50% of mice against maximal electroshock seizures)” value [4] was 85 ± 11 mg/kg.
In the case of `O=C1NC(=O)C(c2ccccc2)(c2ccccc2)N1` [phenytoin (Dilantin), phenytoin, reference compound], the “I.P. LD50” value [1] is listed as 200 ± 45 mg/kg, the “Activity against pentylenetetrazol seizures” value [9] is listed as “inactive” and the “ORAL ED50 (dose protecting 50% of mice against pentylenetetrazol-induced seizures)” value [2] is listed as “No Activity”. For the same compound, the “Block of the classical after-discharge when a nerve is electronically stimulated” value [7] was “completely block”, the “ORAL LD50” value [3] was 490 ± 35 mg/kg and the Single impulse transmission [8] was “Neither pirfenidone nor phenytoin impair”. For the same compound, the “Delay of peak or effective concentrations in plasma and tissues after oral ingestion” value [10] was no less than 3 h and the “I.P. ED50 (dose protecting 50% of mice against maximal electroshock seizures)” value [4] was 50 ± 15 mg/kg.
